Data as given in patent US20130130306A1, “ZN (II) BASED COLORIMETRIC SENSOR AND PROCESS FOR THE PREPARATION THEREOF” (COUNCIL OF SCIENTIFIC & INDUSTRIAL RESEARCH, priority 2010, published 2013).

Experiments:
[1] = test system: Pseudomonas fluorescence (Gram −ve); assay: Staining of Gram −ve bacteria, light microscopy and growth kinetics; assay type: cell-based; parameters: change in color of bacterial stains: dose or concentration left out as unconfirmed; conditions: for growth of colonies streaked on nutrient agar plates after incubation with sensor: Pseudomonas species in King's B media, 25° C., 10 mins
Protocol: The isolates of Saccharomyces sp. were cultured in GYE (glucose yeast extract agar) media, Bacillus sp. in Nutrient broth, and Pseudomonas sp. in King's B medium for 24 hour at 37° C. […] of this was taken and was allowed to incubate at 30 to 40° C. along with 100 μl of L.Zn (Scheme 1, Formula 1A) (1.16×10^−4 M) solution. The samples were fixed overnight at room temperature 25-30° C. with 2% (v/v) glutaraldehyde in 0.1 M phosphate buffer at pH 7.5. The samples were then washed with 0.1 M phosphate buffer (pH 7.5) at room temperature 25-30° C. for 1 hour. Post-fixation was carried out in 2% (w/v) osmium tetroxide (OsO4) in the same buffer and was washed once with 0.1 M phosphate buffer for 20 minutes. Then, the water was removed by a graded water-ethanol series; 25% ethanol for 15 min, 50% ethanol for 15 min, 75% ethanol for 30 min, 90% ethanol for 60 min, absolute alcohol for 30 min. The specimens were rinsed in buffer and coated with gold in a sputter coater (Polaron SC7620) prior to microscopy. The material was examined in a Scanning Electron Microscope (SEM) LEO 1430 VP at an accelerating Voltage of 15 kV.
The isolates of Saccharomyces sp. were cultured in GYE (glucose yeast extract agar) media, Bacillus sp. in Nutrient broth, and Pseudomonas sp. in King's B medium for 24 hour at 37° C. 1001 of this was taken and was allowed to incubate at room temperature along with 1001 of [L.Zn]=1.16×10^−4M solution (pH 7.2, 10 mM HEPES buffer solution). The samples were fixed overnight at 25 to 35° C. with 2% (v/v) glutaraldehyde in 0.1 M phosphate buffer at pH 7.5. The samples were then; washed with 0.1 M phosphate buffer (pH 7.5) at 25 to 35° C. for 1 hour. Post-fixation was carried out in 2% (w/v) osmium tetroxide (OsO4) in the same buffer and was washed once with 0.1 M phosphate buffer for 20 minutes. Then, the water was removed by a graded water-ethanol series; 25% ethanol for 15 min, 50% ethanol for 15 min, 75% ethanol for 30 min, 90% ethanol for 60 min, absolute alcohol for 30 min. The specimens were rinsed in buffer and coated with gold in a sputter coater (Polaron SC7620) prior to microscopy. The material was examined in a scanning electron microscope (SEM) LEO 1430 VP at an accelerating Voltage of 15 kV.
We also explored the possibility of using L.Zn/L.Zn.α-CD as the staining agent for prokaryotes (Gram +ve and Gram −ve bacterial cells). […] As expected stained cells for Gram +ve bacteria appeared longer as compared to those of the stained Gram −ve bacteria. The difference in the staining intensity for two different bacteria with the L.Zn.α-CD (Scheme 2) could be much better understood after going into the depth of cell biology of each bacterial cells and the detailed biochemistry involved while staining; besides, difference in cell structure and cell wall composition of the respective bacteria. […] Changes on the cell surfaces on binding of the dye, L.Zn (Scheme 1, Formula 1A) were also evident from the SEM images recorded for Gram −ve and Gram +ve bacteria, in absence and presence of staining agent (FIGS. 11C to 11F). Difference in the contrasts in the SEM images of the sample surfaces also signifies the non-homogeneous chemical nature of the sample surface. […] The growth profile of Eukaryotic Yeast cells (Saccharomyces cerevisiae) and Prokaryotic bacterial cells ([…]) in an aqueous culture medium in absence and presence of L.Zn (Scheme 1, Formula 1A) are shown in FIG. 12. […]

[2] = Absorption and 31P NMR study of binding to various anions
Protocol: In order to examine the binding behaviour of the Zn-complex (L.Zn) (Scheme 1, Formula 1A) to various important anions (like ATP, CTP, ADP, AMP, PPi, H2PO4^−, SO4^2−, CH3CO2^−, I^−, Br^−, Cl^− and F^−) the following experiment was conducted. A solution (˜21 mM) for of sodium salts of ATP, CTP, ADP, AMP, PPi, H2PO4^−, SO4^−, CH3CO2^−, I^−, Br^−, Cl^−, and F^− were prepared using respective salt in 10 mM HEPES buffer solutions (pH 7.2) and was stored for use. Further, a solution (44.35 μM) of the compound L.Zn (Scheme 1, Formula 1A) was prepared using doubly-distilled and deionized water and stored. These stored solutions were used on the day of preparation of the solution for experiment. […]

CN(C)c1ccc(N=Nc2ccc(S(=O)(=O)N3CCCNCCNCCCNCC3)cc2)cc1.O=[N+]([O-])[O-].O=[N+]([O-])[O-].[Zn+2] [L.Zn]
growth of colonies streaked on nutrient agar plates after incubation with sensor ([1]; sensor 1.0×10^−4 M): colonies of the test microbes grew
growth of colonies streaked on nutrient agar plates after incubation with sensor ([1]; sensor 1.25×10^−4 M): colonies of the test microbes grew
growth of colonies streaked on nutrient agar plates after incubation with sensor ([1]; sensor 1.45×10^−4 M): colonies of the test microbes grew
binding to ATP released during cell growth, Gram −ve compared to Gram +ve ([1]; extent of absorbance changes and slope, growth kinetics at 600 nm): higher binding
change in color of bacterial stains ([1]; light microscopy): distinct change in color
observed binding preference / trend in binding affinity ([2]; 31P NMR and spectral data): ATP>>CTP>ADP>>AMP
change of absorption spectrum on addition of other anions ([2]; 2000 equivalents of other anions, pH 7.2): no change was observed
